The source of these data is PMC5218480 (PLoS ONE, 2017).

In the experiment the test system is MV-4-11 cells. The experiment in a line: Gene expression microarray analysis (Affymetrix PrimeView) and GSEA. In kind it is cell-based, human. Further details: RFU PODN (11730768_x_at) / Fold change /veh PODN (11730768_x_at) / RFU LINC00158 (11744669_a_at) / Fold change /veh LINC00158 (11744669_a_at) / RFU DUSP10 (11751237_a_at) / Fold change /veh DUSP10 (11751237_a_at) / RFU ID3 (11757404_x_at) / Fold change /veh ID3 (11757404_x_at) / RFU PLEKHG5 (11737974_s_at) / Fold change /veh PLEKHG5 (11737974_s_at) / RFU LRRC4B (11730491_at) / Fold change /veh LRRC4B (11730491_at) / RFU GIMAP4 (11747438_a_at) / Fold change /veh GIMAP4 (11747438_a_at) / RFU KRT8 (11758183_x_at) / Fold change /veh KRT8 (11758183_x_at) / RFU CNN1 (11734310_a_at) / Fold change /veh CNN1 (11734310_a_at) / RFU VPS37D (11726825_at) / Fold change /veh VPS37D (11726825_at) / RFU C10orf10 (11716522_x_at) / Fold change /veh C10orf10 (11716522_x_at) / RFU KIR2DL2 /// KIR2DL4 /// KIR2DL5A /// KIR2DL5B /// KIR2DS1 /// KIR2DS2 /// KIR2DS3 /// KIR2DS4 /// KIR3DL3 /// KIR3DL3 /// KIR3DS1 (11738374_at) / Fold change /veh KIR2DL2 /// KIR2DL4 /// KIR2DL5A /// KIR2DL5B /// KIR2DS1 /// KIR2DS2 /// KIR2DS3 /// KIR2DS4 /// KIR3DL3 /// KIR3DL3 /// KIR3DS1 (11738374_at) / RFU C1QL1 (11718748_at) / Fold change /veh C1QL1 (11718748_at) / RFU TMPRSS4 (11747572_a_at) / Fold change /veh TMPRSS4 (11747572_a_at) / RFU HAMP (11756126_x_at) / Fold change /veh HAMP (11756126_x_at) / RFU RNFT2 (11725882_a_at) / Fold change /veh RNFT2 (11725882_a_at) / RFU NR4A2 (11747474_a_at) / Fold change /veh NR4A2 (11747474_a_at) / RFU ABCC12 (11746883_a_at) / Fold change /veh ABCC12 (11746883_a_at) / RFU TMEM136 (11760407_x_at) / Fold change /veh TMEM136 (11760407_x_at) / RFU CLDN22 /// WWC2 (11732394_at) / Fold change /veh CLDN22 /// WWC2 (11732394_at) / RFU HLA-DPB1 (11760878_x_at) / Fold change /veh HLA-DPB1 (11760878_x_at) / RFU SPINT1 (11716480_a_at) / Fold change /veh SPINT1 (11716480_a_at) / RFU GAP43 (11754022_s_at) / Fold change /veh GAP43 (11754022_s_at) / RFU A4GNT (11735810_at) / Fold change /veh A4GNT (11735810_at) / RFU PRB3 (11715151_x_at) / Fold change /veh PRB3 (11715151_x_at) / RFU TUBB4B (11761932_at) / Fold change /veh TUBB4B (11761932_at) / RFU CAPN14 (11732068_a_at) / Fold change /veh CAPN14 (11732068_a_at) / RFU TMCC2 (11721928_a_at) / Fold change /veh TMCC2 (11721928_a_at) / RFU IRGQ (11745062_a_at) / Fold change /veh IRGQ (11745062_a_at) / RFU FAM174B (11720279_a_at) / Fold change /veh FAM174B (11720279_a_at) / RFU TMPRSS4 (11748680_a_at) / Fold change /veh TMPRSS4 (11748680_a_at) / RFU FAM212B (11763350_a_at) / Fold change /veh FAM212B (11763350_a_at) / RFU PLEKHG5 (11743358_a_at) / Fold change /veh PLEKHG5 (11743358_a_at) / RFU ZSCAN30 (11745921_a_at) / Fold change /veh ZSCAN30 (11745921_a_at) / RFU CMKLR1 (11741424_a_at) / Fold change /veh CMKLR1 (11741424_a_at) / RFU LOC101060620 /// MAPK8IP1 (11723275_at) / Fold change /veh LOC101060620 /// MAPK8IP1 (11723275_at) / RFU SPTSSB (11747773_x_at) / Fold change /veh SPTSSB (11747773_x_at) / RFU PRSS12 (11739890_at) / Fold change /veh PRSS12 (11739890_at) / RFU BIN1 (11741810_x_at) / Fold change /veh BIN1 (11741810_x_at) / RFU WNT11 (11732464_a_at) / Fold change /veh WNT11 (11732464_a_at) / RFU C10orf10 (11716521_a_at) / Fold change /veh C10orf10 (11716521_a_at) / RFU C5orf56 (11738089_at) / Fold change /veh C5orf56 (11738089_at) / RFU CYB561 (11721691_x_at) / Fold change /veh CYB561 (11721691_x_at) / RFU ANKRD19P (11752326_a_at) / Fold change /veh ANKRD19P (11752326_a_at) / RFU OR2T12 /// OR2T33 /// OR2T8 (11738714_s_at) / Fold change /veh OR2T12 /// OR2T33 /// OR2T8 (11738714_s_at) / RFU VCAN (11748164_a_at) / Fold change /veh VCAN (11748164_a_at) / RFU JSRP1 (11732532_at) / Fold change /veh JSRP1 (11732532_at) / RFU KRTAP10-11 (11738290_x_at) / Fold change /veh KRTAP10-11 (11738290_x_at) / RFU MYO3A (11730013_a_at) / Fold change /veh MYO3A (11730013_a_at) / RFU EBF3 (11725865_a_at) / Fold change /veh EBF3 (11725865_a_at) / RFU CAMK2N1 (11719241_x_at) / Fold change /veh CAMK2N1 (11719241_x_at) / RFU C5orf56 (11738088_a_at) / Fold change /veh C5orf56 (11738088_a_at) / RFU OLFML3 (11715873_a_at) / Fold change /veh OLFML3 (11715873_a_at) / RFU LOC100653217 /// NTM (11731650_a_at) / Fold change /veh LOC100653217 /// NTM (11731650_a_at) / RFU MAPK11 (11762145_a_at) / Fold change /veh MAPK11 (11762145_a_at) / RFU FIZ1 (11724087_x_at) / Fold change /veh FIZ1 (11724087_x_at) / RFU OASL (11726364_x_at) / Fold change /veh OASL (11726364_x_at) / RFU SOX15 (11748057_x_at) / Fold change /veh SOX15 (11748057_x_at) / RFU CD79A (11719716_a_at) / Fold change /veh CD79A (11719716_a_at) / RFU HIST1H1D (11736915_at) / Fold change /veh HIST1H1D (11736915_at) / RFU CASKIN2 (11723855_a_at) / Fold change /veh CASKIN2 (11723855_a_at) / RFU LOC730098 (11760151_x_at) / Fold change /veh LOC730098 (11760151_x_at) / RFU OR4N2 (11742367_at) / Fold change /veh OR4N2 (11742367_at) / RFU PRRT2 (11749266_a_at) / Fold change /veh PRRT2 (11749266_a_at) / RFU SNX32 (11753110_a_at) / Fold change /veh SNX32 (11753110_a_at) / RFU CDHR5 (11726645_a_at) / Fold change /veh CDHR5 (11726645_a_at) / RFU RCAN1 (11760418_a_at) / Fold change /veh RCAN1 (11760418_a_at) / RFU FAM167A (11723789_a_at) / Fold change /veh FAM167A (11723789_a_at) / RFU FAM26E (11764081_at) / Fold change /veh FAM26E (11764081_at) / RFU ISYNA1 (11749810_s_at) / Fold change /veh ISYNA1 (11749810_s_at) / RFU ACY1 (11761880_at) / Fold change /veh ACY1 (11761880_at) / RFU 11764098_at / Fold change /veh 11764098_at / RFU SAMD14 (11745864_x_at) / Fold change /veh SAMD14 (11745864_x_at) / RFU NPB (11741838_a_at) / Fold change /veh NPB (11741838_a_at) / RFU TMPRSS6 (11731388_a_at) / Fold change /veh TMPRSS6 (11731388_a_at) / RFU KRTAP10-2 (11738614_at) / Fold change /veh KRTAP10-2 (11738614_at) / RFU ARHGAP8 /// PRR5-ARHGAP8 (11727945_x_at) / Fold change /veh ARHGAP8 /// PRR5-ARHGAP8 (11727945_x_at) / RFU KRTAP5-7 /// NADSYN1 (11734609_at) / Fold change /veh KRTAP5-7 /// NADSYN1 (11734609_at) / RFU RASL12 (11751679_a_at) / Fold change /veh RASL12 (11751679_a_at) / RFU CDKN2B (11736163_a_at) / Fold change /veh CDKN2B (11736163_a_at) / RFU PRF1 (11729649_at) / Fold change /veh PRF1 (11729649_at) / RFU, ZNF638 /// ZNF638-IT1 / Fold change vs veh, ZNF638 /// ZNF638-IT1 / RFU, PANK3 / Fold change vs veh, PANK3 / RFU, SH3YL1 / Fold change vs veh, SH3YL1 / RFU, ZEB2 / Fold change vs veh, ZEB2 / RFU, NRIP1 / Fold change vs veh, NRIP1 / RFU, PTTG1IP / Fold change vs veh, PTTG1IP / RFU, CAPN2 / Fold change vs veh, CAPN2 / RFU, MED14 / Fold change vs veh, MED14 / RFU, SNORA58 / Fold change vs veh, SNORA58 / RFU, C1orf63 / Fold change vs veh, C1orf63 / RFU, LRRFIP1 / Fold change vs veh, LRRFIP1 / RFU, NDUFAF7 / Fold change vs veh, NDUFAF7 / RFU, SLC12A2 / Fold change vs veh, SLC12A2 / RFU, IBTK / Fold change vs veh, IBTK / RFU, ESF1 / Fold change vs veh, ESF1 / Fold change vs veh, TMEM50B / RFU, TAOK1 / Fold change vs veh, TAOK1 / RFU, ACBD3 / Fold change vs veh, ACBD3 / RFU, TMA16 / Fold change vs veh, TMA16 / RFU, RWDD3 / Fold change vs veh, RWDD3 / RFU, BCAT1 / Fold change vs veh, BCAT1 / RFU, EDEM3 / Fold change vs veh, EDEM3 / RFU, TMEM33 / Fold change vs veh, TMEM33 / RFU, WDR75 / Fold change vs veh, WDR75 / RFU, AHCTF1 / Fold change vs veh, AHCTF1 / RFU, TFRC / Fold change vs veh, TFRC / RFU, ZDHHC17 / Fold change vs veh, ZDHHC17 / RFU, NOM1 / Fold change vs veh, NOM1 / RFU, ARL8B / Fold change vs veh, ARL8B / RFU, ZBTB11 / Fold change vs veh, ZBTB11 / RFU, TAMM41 / Fold change vs veh, TAMM41 / RFU, KIAA1704 /// LOC100996395 / Fold change vs veh, KIAA1704 /// LOC100996395 / RFU, ING1 / Fold change vs veh, ING1 / RFU, TRMT61B / Fold change vs veh, TRMT61B / RFU, FUBP3 / Fold change vs veh, FUBP3 / RFU, TP53 / Fold change vs veh, TP53 / RFU, TNKS2 / Fold change vs veh, TNKS2 / RFU, ZFP14 / Fold change vs veh, ZFP14 / RFU, ACTR2 / Fold change vs veh, ACTR2 / RFU, PPP3R1 / Fold change vs veh, PPP3R1 / RFU, PIK3R1 / Fold change vs veh, PIK3R1 / RFU, HNRNPA1 / Fold change vs veh, HNRNPA1 / RFU, RNF170 / Fold change vs veh, RNF170 / RFU, ZNF28 / Fold change vs veh, ZNF28 / RFU, RNGTT / Fold change vs veh, RNGTT / RFU, OGT / Fold change vs veh, OGT / RFU, BRD1 / Fold change vs veh, BRD1 / RFU, MARS / Fold change vs veh, MARS / RFU, ZNF655 / Fold change vs veh, ZNF655 / RFU, FAHD1 / Fold change vs veh, FAHD1 / RFU, BDP1 / Fold change vs veh, BDP1 / RFU, LRRCC1 / Fold change vs veh, LRRCC1 / RFU, ARID1A / Fold change vs veh, ARID1A / RFU, ZNF146 / Fold change vs veh, ZNF146 / RFU, ZNF330 / Fold change vs veh, ZNF330 / RFU, GPN3 / Fold change vs veh, GPN3 / RFU, C9orf123 / Fold change vs veh, C9orf123 / RFU, N4BP2L2 / Fold change vs veh, N4BP2L2 / RFU, ARFIP1 / Fold change vs veh, ARFIP1 / RFU, FAM179B / Fold change vs veh, FAM179B / RFU, BCL10 / Fold change vs veh, BCL10 / RFU, UHRF1BP1L / Fold change vs veh, UHRF1BP1L / RFU, BET1 / Fold change vs veh, BET1 / RFU, CNOT2 / Fold change vs veh, CNOT2 / RFU, ZNF268 / Fold change vs veh, ZNF268 / Fold change vs veh, ZNF507 / RFU, DGCR2 / Fold change vs veh, DGCR2 / RFU, WDSUB1 / Fold change vs veh, WDSUB1 / Fold change vs veh, HSP90B1 /// MIR3652 / RFU, ADSS / Fold change vs veh, ADSS / RFU, GK / Fold change vs veh, GK / RFU, ZNF148 / Fold change vs veh, ZNF148 / RFU, TAF9 / Fold change vs veh, TAF9 / RFU, SLC1A5 / Fold change vs veh, SLC1A5 / RFU, SLMO2 / Fold change vs veh, SLMO2 / RFU, ABCC4 / Fold change vs veh, ABCC4 / RFU, LOC101060439 /// RAP1B / Fold change vs veh, LOC101060439 /// RAP1B / RFU, RFX7 / Fold change vs veh, RFX7 / RFU, GTPBP10 / Fold change vs veh, GTPBP10 / RFU, CNEP1R1 / Fold change vs veh, CNEP1R1 / RFU, BIVM-ERCC5 /// ERCC5 / Fold change vs veh, BIVM-ERCC5 /// ERCC5 / RFU, ILF3 / Fold change vs veh, ILF3 / RFU 11762660_at / Fold change /veh 11762660_at / RFU VCAN (11757783_s_at) / Fold change /veh VCAN (11757783_s_at) / RFU DDX43 (11728927_at) / Fold change /veh DDX43 (11728927_at) / RFU KRT8 (11758188_x_at) / Fold change /veh KRT8 (11758188_x_at) / RFU NKD1 (11759106_at) / Fold change /veh NKD1 (11759106_at) / RFU SRD5A1 (11742802_a_at) / Fold change /veh SRD5A1 (11742802_a_at) / RFU TPSAB1 /// TPSB2 (11721975_s_at) / Fold change /veh TPSAB1 /// TPSB2 (11721975_s_at) / RFU GSTM3 (11746129_a_at) / Fold change /veh GSTM3 (11746129_a_at) / RFU IL23R (11737362_x_at) / Fold change /veh IL23R (11737362_x_at) / RFU TMEM51 (11727254_a_at) / Fold change /veh TMEM51 (11727254_a_at) / RFU PIWIL2 (11732686_x_at) / Fold change /veh PIWIL2 (11732686_x_at) / RFU ORM1 (11744905_x_at) / Fold change /veh ORM1 (11744905_x_at) / RFU CCDC152 (11743942_at) / Fold change /veh CCDC152 (11743942_at) / RFU ECM1 (11717891_a_at) / Fold change /veh ECM1 (11717891_a_at) / RFU IL23R (11748794_a_at) / Fold change /veh IL23R (11748794_a_at) / RFU TNFAIP8L3 (11732012_x_at) / Fold change /veh TNFAIP8L3 (11732012_x_at) / RFU MBOAT4 (11741988_at) / Fold change /veh MBOAT4 (11741988_at) / RFU 11764193_at / Fold change /veh 11764193_at / RFU TMEM53 (11763286_at) / Fold change /veh TMEM53 (11763286_at) / RFU MAGEB2 (11727129_at) / Fold change /veh MAGEB2 (11727129_at) / RFU TMEM200A (11744735_a_at) / Fold change /veh TMEM200A (11744735_a_at) / RFU CCDC152 (11751479_a_at) / Fold change /veh CCDC152 (11751479_a_at) / RFU FAM211A (11726209_a_at) / Fold change /veh FAM211A (11726209_a_at) / RFU RGS16 (11746705_a_at) / Fold change /veh RGS16 (11746705_a_at) / RFU VCAN (11755009_s_at) / Fold change /veh VCAN (11755009_s_at) / RFU RHOB (11743442_s_at) / Fold change /veh RHOB (11743442_s_at) / RFU RGS16 (11720943_a_at) / Fold change /veh RGS16 (11720943_a_at) / RFU RGS16 (11720944_at) / Fold change /veh RGS16 (11720944_at) / RFU, VPS4B / Fold change vs veh, VPS4B / RFU, CREB1 / Fold change vs veh, CREB1 / RFU, DNAJC13 / Fold change vs veh, DNAJC13 / RFU, GNAQ / Fold change vs veh, GNAQ / RFU, CDK5R1 / Fold change vs veh, CDK5R1 / RFU, ZRANB3 / Fold change vs veh, ZRANB3 / RFU, CUL4A / Fold change vs veh, CUL4A / RFU, CCNY / Fold change vs veh, CCNY / RFU, UFL1 / Fold change vs veh, UFL1 / RFU, COG3 / Fold change vs veh, COG3 / RFU, DIAPH2 / Fold change vs veh, DIAPH2 / RFU, SKA2 / Fold change vs veh, SKA2 / RFU, AFF3 / Fold change vs veh, AFF3 / RFU, LMF1 / Fold change vs veh, LMF1 / RFU, IPO11 / Fold change vs veh, IPO11 / RFU, DFFB / Fold change vs veh, DFFB / RFU, FOXP1 / Fold change vs veh, FOXP1 / RFU, CARD8 / Fold change vs veh, CARD8 / RFU, STRN3 / Fold change vs veh, STRN3 / RFU, ADK / Fold change vs veh, ADK / RFU, RASSF2 / Fold change vs veh, RASSF2 / RFU, WIPF1 / Fold change vs veh, WIPF1 / RFU, LARP1B / Fold change vs veh, LARP1B / RFU, RASA1 / Fold change vs veh, RASA1 / RFU, RB1 / Fold change vs veh, RB1 / RFU, PPFIA1 / Fold change vs veh, PPFIA1 / RFU, MAT2A / Fold change vs veh, MAT2A / RFU, CCT5 / Fold change vs veh, CCT5 / RFU, WDR92 / Fold change vs veh, WDR92 / RFU, CUX1 / Fold change vs veh, CUX1 / RFU, TTC7A / Fold change vs veh, TTC7A / RFU, TMEM135 / Fold change vs veh, TMEM135 / RFU, DEPTOR / Fold change vs veh, DEPTOR / RFU, CPM / Fold change vs veh, CPM / RFU, DNAJB6 / Fold change vs veh, DNAJB6 / RFU, CACNA2D3 / Fold change vs veh, CACNA2D3 / RFU, DTX4 / Fold change vs veh, DTX4 / RFU, TFCP2 / Fold change vs veh, TFCP2 / RFU, GMCL1 /// GMCL1P1 / Fold change vs veh, GMCL1 /// GMCL1P1 / RFU, AEBP2 / Fold change vs veh, AEBP2 / RFU, SNHG1 /// SNORD22 /// SNORD25 /// SNORD26 /// SNORD27 /// SNORD28 /// SNORD29 /// SNORD31 / Fold change vs veh, SNHG1 /// SNORD22 /// SNORD25 /// SNORD26 /// SNORD27 /// SNORD28 /// SNORD29 /// SNORD31 / Fold change (Aza/veh), C12orf56 (ProbeSet 11735607_a_at) / Fold change (ACY-1035/veh), C12orf56 (ProbeSet 11735607_a_at) / Fold change (Aza/veh), FGFR1OP (ProbeSet 11751329_s_at) / Fold change (ACY-1035/veh), FGFR1OP (ProbeSet 11751329_s_at) / Fold change (Aza/veh), VPS36 (ProbeSet 11739960_a_at) / Fold change (ACY-1035/veh), VPS36 (ProbeSet 11739960_a_at) / RFU SYPL1 (11715823_x_at) / Fold change /veh SYPL1 (11715823_x_at) / RFU IGFBP7 (11715501_s_at) / Fold change /veh IGFBP7 (11715501_s_at) / RFU REEP3 (11722064_at) / Fold change /veh REEP3 (11722064_at) / RFU IGLL1 (11728026_x_at) / Fold change /veh IGLL1 (11728026_x_at): dose or concentration left out as unconfirmed. The following applies: MV-4-11 cells, 48 hours.

For `Nc1ccc(-c2cccs2)cc1NC(=O)c1ccc2c(c1)cc(C1CC1)n2CCN1CCOCC1` [ACY-1035], the “RFU BIN1 (11741810_x_at)” value amounted to 33.72 RFU.
